Assay: Storage stability of retinol formulations at 40° C. (retinol content after storage)
Assay type: physicochemical
Details: storage at 40° C.
Method: To determine the stability of these formulations, they were stored (at 40° C.) for 2 weeks and 12 weeks. And the loss of retinol was measure (the initial value was 100%).

cis/trans ratio of the retinol during storage (in words): stable
Structure (SMILES): CC1=C(/C=C/C(C)=C/C=C/C(C)=C/CO)C(C)(C)CCC1 [retinol, Retinol]

Reference: patent publication US20250161232A1, “RETINOL FORMULATION (VI)” (DSM IP Assets B.V., priority 2022, published 2025)
